In brackets after ≈: the same amount, converted by molar mass.
Experiments:
[1] = Half life in human blood at 1 uM by LC-MS/MS analysis; type: ADME, tissue-based
Rattus norvegicus [2] = assay: AUC in Wistar rat assessed as [3-(3-Ethyl-ureido)-5-(2-methyl-pyridin-4-yl)-isoquinolin-8-ylmethyl]-carbamic Acid Methyl Ester at 0.64 mg/kg, iv administered as solution up to 24 hrs by LC-MS/MS analysis; type: ADME, organism-based; parameters: time < 24 hr, dose 0.64 mg/kg, route intravenous; details: in vivo
Rattus norvegicus [3] = assay: Half life in Wistar rat assessed as [3-(3-Ethyl-ureido)-5-(2-methyl-pyridin-4-yl)-isoquinolin-8-ylmethyl]-carbamic Acid Methyl Ester at 0.64 mg/kg, iv administered as solution up to 24 hrs by LC-MS/MS analysis; type: ADME, organism-based; details: in vivo
Rattus norvegicus [4] = assay: Volume of distribution in steady state in Wistar rat assessed as [3-(3-Ethyl-ureido)-5-(2-methyl-pyridin-4-yl)-isoquinolin-8-ylmethyl]-carbamic Acid Methyl Ester at 0.64 mg/kg, iv administered as solution up to 24 hrs by LC-MS/MS analysis; type: ADME, organism-based; details: in vivo
[5] = AUC in Wistar rat at 0.64 mg/kg, iv administered as solution up to 24 hrs by LC-MS/MS analysis; type: ADME, organism-based; parameters: time < 24 hr, dose 0.64 mg/kg, route intravenous; details: in vivo
[6] = Clearance in Wistar rat at 0.64 mg/kg, iv administered as solution up to 24 hrs by LC-MS/MS analysis; type: ADME, organism-based; details: in vivo
[7] = Half life in Wistar rat at 0.64 mg/kg, iv administered as solution up to 24 hrs by LC-MS/MS analysis; type: ADME, organism-based; details: in vivo
[8] = Volume of distribution in steady state in Wistar rat at 0.64 mg/kg, iv administered as solution up to 24 hrs by LC-MS/MS analysis; type: ADME, organism-based; details: in vivo, read-out: Vdss
Rattus norvegicus [9] = assay: AUC in Wistar rat assessed as [3-(3-Ethyl-ureido)-5-(2-methyl-pyridin-4-yl)-isoquinolin-8-ylmethyl]-carbamic Acid Methyl Ester at […], po administered as suspension up to 24 hrs by LC-MS/MS analysis; type: ADME, organism-based; details: in vivo
Rattus norvegicus [10] = assay: Cmax in Wistar rat assessed as [3-(3-Ethyl-ureido)-5-(2-methyl-pyridin-4-yl)-isoquinolin-8-ylmethyl]-carbamic Acid Methyl Ester at […], po administered as suspension up to 24 hrs by LC-MS/MS analysis; type: ADME, organism-based; details: in vivo
Rattus norvegicus [11] = assay: Tmax in Wistar rat assessed as [3-(3-Ethyl-ureido)-5-(2-methyl-pyridin-4-yl)-isoquinolin-8-ylmethyl]-carbamic Acid Methyl Ester at […], po administered as suspension up to 24 hrs by LC-MS/MS analysis; type: ADME, organism-based; details: in vivo
Rattus norvegicus [12] = assay: Oral bioavailability in Wistar rat assessed as [3-(3-Ethyl-ureido)-5-(2-methyl-pyridin-4-yl)-isoquinolin-8-ylmethyl]-carbamic Acid Methyl Ester at […] administered as suspension up to 24 hrs by LC-MS/MS analysis; type: ADME, organism-based; details: in vivo
Rattus norvegicus [13] = assay: AUC in Wistar rat at […], po administered as suspension up to 24 hrs by LC-MS/MS analysis; type: ADME, organism-based; details: in vivo, BLD = below limit of detection
[14] = Half life in rat blood at 1 uM by LC-MS/MS analysis; type: ADME, tissue-based
[15] = Solubility of compound in water at pH 6.3; type: physicochemical
[16] = Stability of the compound at room temperature for weeks; type: physicochemical
[17] = Half life in mouse blood at 1 uM by LC-MS/MS analysis; type: ADME, tissue-based
Staphylococcus aureus [18] = assay: Antibacterial activity against methicillin-sensitive Staphylococcus aureus A-1178 infected in neutropenic mouse assessed as change in bacterial burden in thighs at […], iv administered every 2.75 hrs for 2 times measured 6.5 hrs post infection; type: functional
Staphylococcus aureus [19] = assay: Antibacterial activity against methicillin-sensitive Staphylococcus aureus A-1178 infected in neutropenic mouse assessed as change in bacterial burden in thighs at 38.4 mg/kg, iv administered every 2.75 hrs for 2 times measured 6.5 hrs post infection; type: functional

half-life at 1 µM [1]: 18 min
AUC (Rattus norvegicus [2]): 301 ng·h/mL
t1/2 (Rattus norvegicus [3]): 48 min
Vdss (Rattus norvegicus [4]): 1.1 L/kg
AUC at 24 h [5]: 79 ng·h/mL
clearance [6]: 130 mL/min/kg
half-life [7]: 12 min
Vd [8]: 0.5 L/kg
AUC (Rattus norvegicus [9]): 310 ng·h/mL
Cmax (Rattus norvegicus [10]): 250 ng/mL
Tmax (Rattus norvegicus [11]): 30 min
F (Rattus norvegicus [12]): 30%
AUC (Rattus norvegicus [13]): Bld
half-life at 1 µM [14]: 60 min
solubility [15]: 12.7 mg/mL (≈ 25.2 mM)
Stability [16]: Stable
half-life at 1 µM [17]: 96 min
SMILES: CCNC(=O)Nc1cc2c(-c3cc[n+](COP(=O)([O-])O)c(C)c3)ccc(CNC(=O)OC)c2cn1
Activity (Staphylococcus aureus [18]): -3.6 deltalog10CFU
Activity (Staphylococcus aureus [19]): < -4.8 deltalog10CFU

— ChEMBL document CHEMBL4049438, “Discovery and Optimization of Isoquinoline Ethyl Ureas as Antibacterial Agents” (J Med Chem, 2017)
